In patent US8269008B2, “Oxazolopyridine and isoxazolopyridine derivatives for use in the treatment of HIF-mediated conditions” (FibroGen, Inc., priority 2007, dated 2012):

target: T1, HIF-PH2 (EGLN1) (Homo sapiens, UniProt Q9GZT9); test: HIF-PH assay (14CO2 capture, peptide-dependent turnover); assay type: biochemical; details: Concentration 22.22 μM
T1 construct: made in house; host or cells: insect Hi5 cells
From the text: Ketoglutaric acid α-[1-^14C]-sodium salt, alpha-ketoglutaric acid sodium salt, and HPLC purified peptide may be obtained from commercial sources, e.g., Perkin-Elmer (Wellesley Mass.), Sigma-Aldrich, and SynPep Corp. (Dublin Calif.), respectively. Peptides for use in the assay may be fragments of HIFα as described above or as disclosed in International Publication WO 2005/118836, incorporated by reference herein. For example, a HLF peptide for use in the HIF-PH assay is [methoxycoumarin]-DLDLEALAPYIPADDDFQL-amide. HIF-PH, e.g., HIF-PH2 (EGLN1), can be expressed in, e.g., insect Hi5 cells, and partially purified, e.g., through a SP ion exchange chromatography column. Enzyme activity is determined by capturing ^14CO2 using an assay described by Kivirikko and Myllyla (1982, Methods Enzymol. 82:245-304). Assay reactions contain 50 mM HEPES (pH 7.4), 100 μM α-ketoglutaric acid sodium salt, 0.30 μCi/mL ketoglutaric acid α-[1-^14C]-sodium salt, 40 μM FeSO4, 1 mM ascorbate, 1541.8 units/mL Catalase, with or without 50 μM peptide substrate and various concentrations of compound of the invention. Reactions are initiated by addition of HIF-PH enzyme.
The peptide-dependent percent turnover is calculated by subtracting percent turnover in the absence of peptide from percent turnover in the presence of substrate peptide. Percent inhibition and IC50 are calculated using peptide-dependent percent turnover at given inhibitor concentrations. Calculation of IC50 values for each inhibitor is conducted using GraFit software (Erithacus Software Ltd., Surrey UK). […]

T1 sequence (Q9GZT9 whole entry, species assumed): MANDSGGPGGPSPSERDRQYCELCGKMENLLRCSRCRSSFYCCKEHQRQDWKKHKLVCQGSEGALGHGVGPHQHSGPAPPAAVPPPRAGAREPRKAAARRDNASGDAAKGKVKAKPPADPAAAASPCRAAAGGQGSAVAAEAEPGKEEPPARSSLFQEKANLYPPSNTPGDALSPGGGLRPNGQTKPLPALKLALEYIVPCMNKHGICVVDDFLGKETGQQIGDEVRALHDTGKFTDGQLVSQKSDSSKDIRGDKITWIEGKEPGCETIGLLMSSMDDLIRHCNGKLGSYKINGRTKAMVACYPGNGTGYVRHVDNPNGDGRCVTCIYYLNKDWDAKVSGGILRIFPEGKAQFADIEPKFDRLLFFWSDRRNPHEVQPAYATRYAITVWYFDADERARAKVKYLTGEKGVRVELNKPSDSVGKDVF

| inhibition at 22.22 µM [%] | SMILES |
| --- | --- |
| 97.5 | Cc1noc2c(-c3ccccc3)nc(C(=O)NCC(=O)O)c(O)c12 [Example 71, [(4-Hydroxy-3-methyl-7-phenyl-isoxazolo[5,4-c]pyridine-5-carbonyl)-amino]-acetic acid] |
| 94.6 | Cc1nc(C(=O)NCC(=O)O)c(O)c2c(C)noc12 [Example 72, [(4-Hydroxy-3,7-dimethyl-isoxazolo[5,4-c]pyridine-5-carbonyl)-amino]-acetic acid] |
| 97.4 | Cc1nc(C(=O)NCC(=O)O)c(O)c2c(-c3ccc(OC(F)(F)F)cc3)noc12 [Example 73, {[4-Hydroxy-7-methyl-3-(4-trifluoromethoxy-phenyl)-isoxazolo[5,4-c]pyridine-5-carbonyl]-amino}-acetic acid] |
| 94.4 | COc1ccc(-c2noc3c(C)nc(C(=O)NCC(=O)O)c(O)c23)cc1 [Example 74, {[4-Hydroxy-3-(4-methoxy-phenyl)-7-methyl-isoxazolo[5,4-c]pyridine-5-carbonyl]-amino}-acetic acid] |
| 98 | O=C(O)CNC(=O)c1ncc2onc(-c3ccc(Cl)cc3Cl)c2c1O [Example 75, {[3-(2,4-Dichloro-phenyl)-4-hydroxy-isoxazolo[5,4-c]pyridine-5-carbonyl]-amino}-acetic acid] |
| 99.4 | CS(=O)(=O)c1ccc(-c2noc3cnc(C(=O)NCC(=O)O)c(O)c23)cc1 [Example 76, {[4-Hydroxy-3-(4-methanesulfonyl-phenyl)-isoxazolo[5,4-c]pyridine-5-carbonyl]-amino}-acetic acid] |
